Laboratory results as given in patent EP2229935A1, “Peptide derivatives or pharmaceutically acceptable salts thereof, method for producing the same, use of said derivatives and pharmaceutical composition” (Nebolsin, Vladimir Evgenievich, priority 1997, dated 1999).
Marks after values point to notes of the source that are not given here.

Tests used:
Male guinea pigs = experiment: Antigen-induced bronchospasm in actively sensitized guinea pigs; assay type: in vivo; details: for Bronchospasm (percent of the maximum value): sensitized guinea pigs
Procedure: Antiasthmatic effect of the test compounds was studied using an antigen-induced bronchospasm model in actively sensitized guinea pigs according to the Andersson method [Andersson P. Antigen induced bronchial anaphylaxis in actively sensitized guinea pig. Allergy (1980), Vol. 35, pp. 65-71].
Male guinea pigs were sensitized with intramuscular injection of 0.5 ml suspension comprising 20 micrograms ovalbumin (OVA, manufactured by the Sigma company [grade III]) and 100 mg Al(OH)3 per one animal. Anaphylaxis-provoking dose 150-200 µg/kg OVA in 0.1 ml normal saline was intravenously (v. jugularis) injected on day 26 after sensibilization. Bronchospasm induction and measuring external respiration parameters were carried out according to the method described in Yu-Hong L., Barnes P., Rogers D. Inhibition of neurogenic plasma exudation and bronchoconstriction by a K+ channel activator, BRL 38227, in guinea pig airways in vivo. Europ. J. Pharmacol. (?), Vol. 239, pp.257-259]. Measurement of respiration parameters was performed using a transducer (Ugo Basel, model 7020), connected with a cannula and a recorder (Millichrome), recording breathing amplitude. […] Efficacy of compounds was determined by change in bronchospasm value.
Inthal was used as a reference drug that was administered to animals at a dose 5 µg/kg according to the same dosage regimen as the test substances were administered. The control group of animals received equivalent amount of normal saline.
Groups of animals: group 1 - control; group 2 - animals given Inthal; group 3 - animals given oral compound XLIV; group IV - animals given oral compound III; group 5 - animals given intratracheal compound III; group 6 - animals given compound XLIX, group 7 - animals given compound XXXI, group 8 - animals given compound XLVI; group 9 - animals given compound VI, group 10 - animals given compound XLVIII.

white mongrel male rats [1] = experiment: Carrageenan paw edema, oral administration (series I); assay type: in vivo; details: once 20 µg/kg 1 hour before edema induction
Procedure: Experiment was carried out on white mongrel male rats weighing 280-300 g. Carrageenan-induced edema was caused according to the method of Winter et al. [[inter et al. In: De Rosa M., Giroud J.P., Willoughby D.A. Studies of the mediators of the acute inflammatory reponse induced in rats in different sites by carrageenan and turpentine. […] Paw volume measurement was done using a plethysmograph (Ugo Basile) 1, 3 and 4 hours after carrageenan administration. Inhibition of inflammatory reaction expressed in percent, was calculated according to the formula: 100-[(R-L(exper.))/(L):(R-L(control))/(L)x100](%) [formula] where R - the right paw volume, L - the left paw volume.
Series I of experiment. […] The reference drug Naproxene was once administered at a dose 20 µg/kg 1 hour before edema induction. Each group included 10 animals.

white mongrel male rats [2] = experiment: Paw edema induced by Freund's complete adjuvant; assay type: in vivo; details: rats, FCA edema; once 50 µg/kg 1 hour before edema induction
Procedure: Experiment was carried out on white mongrel male rats weghing 280-300 g. The model of paw edema induced by Freund's complete adjuvant (FCA), was reproduced according to the method of Ezamuzie and Umezurike [Ezamuzie Ch., Umezurike C.C. Effect of histamine H2-receptor antagonists on acute inflammatory of the rat paw oedema. J. Pharmacol. (1989), Vol. 41, pp. 261-265]. Paw volume measurement was done using a plethysmograph (Ugo Basile). Inhibition of inflammatory reaction expressed in percent, as calculated according to the formula: 100-[(R-L(exper.))/(L):(R-L(control))/(L)x100](%) [formula] where R - the right paw volume, L - the left paw volume.
Each group included 10 animals.
Group of animals: • Group 1 - control, animals were administered 0.5 ml of 1% starch solution. • Group 2 - animals were administered the compound XLVIII. • Group 3 - animals were administered the compound III. • Group 4 - animals were administered Naproxene.

mongrel rats = experiment: Antiischemic activity: necrosis zone after coronary artery occlusion (myocardial infarction); assay type: in vivo; details: 4 hours after occlusion, single intraperitoneal immediately after occlusion, 1000 µg/kg
Procedure: Antiischemic activity of a compound was assessed by an integral test, i.e. effect on the necrosis zone area following reproduction of myocardial infarction in mongrel rats weighing 250-300 g.
Effect of a compound on the necrosis zone area was studied in 4 hours after arterial occlusion in rats using a differential indicator method [Sernov L.N., Gatsura V.V. A differential indicator method for determinig ischemic and necrotic zone in experimental myocardial infarction in rats. Bulletin of Experimental Biology and Medicine (1989), No 5, pp. 534-535]. All the painful manipulations were performed on animals under Ethaminal anesthesia (Ethaminal - 40 mg/kg intraperitoneally). Experiment was carried out in 15 hours after the last compound administration. Each group included 8 animals.
Groups of animals: • Group 1 - intact control -administration of normal saline four times. • Groups 2 and 3 - oral administration of the compound III at doses respectively 50 and 500 µg/kg for 4 days. • Group 4 - single intraperitoneal administration of Nicorandil at a dose 1 mg/kg immediately after occlusion.

[C^14]-arachidonic acid = Metabolism of [C^14]-arachidonic acid in pulmonary tissue homogenate of treated mice; assay type: in vivo, CBA male mice; details: CBA mice lung homogenate; 80 µg/kg for three days
Procedure: Studies were carried out on CBA male mice fed a standard vivarium ration. […] Then animals were sacrified, their lungs were taken out, frozen in liquid nitrogen, homogenized in a glass homogenizer manufactured by the Wheaton company (U.S.A.) at +4°C in 10 volumes 0.05 M Tris-HCl buffer. […] Densitometry of the autoradiochromatograms obtained on the X-ray films X-Omat AR (Kodak, U.S.A.) and HS 11 (ORWO, Germany) were performed on the KS 3 densiscan (Kipp and Zonnen, Holland). Quantative analysis of individual eucosanoids was carried out using radiometry of the fractions obtained with high performance liquid chromatography (the Gilson company HPLC-system, France; the Du Pont company ZORBAX C8 column, U.S.A.) and with elution of spots on TLC-plates.

P-450 and B5 cytochromes = experiment: Hepatic content of P-450 and B5 cytochromes (microsomal liver fraction); assay type: in vivo, guinea pigs; details: guinea pig liver microsomes; administered three times 72, 48 and 24 hours before
Procedure: Change in hepatic monooxygenase system was studied on mongrel male guinea pigs with initial mass 250-300 g; each group included 12 animals. […]. The content of P-450 and […] cytochromes was measured according to the published method [Omura T., Scato R. The monooxide binding pigment of liver microsomes. 11. Solubilization, purification and properties. J. Chem. (1964), Vol. 239, pp. 2379-2385] in microsomal liver fraction, isolated using differential centrifugation method [Ahokas J., Pelkonen O., Karkin N. Charcaterisation of BP-hydroxylase of Trout-liver. Cancer Res. (1977), Vol. 37, pp. 3737-3743]. The priority method {Izotov M.V., Scherbakov V.M., Devichensky V.M. et al. The method of determining the content of P-450 cytochrome isoenzymes in liver microsomes. The inventor's certificate No 1,488,738. B.I. (1989), No 3.-6.06.09, ICI, 01. - No 33/15, No 33/48]. Microsomal protein content was determined using the modified Lowry method [Hartree E. Determination of protein: a modification of the Lowry method, that gives a linear photometric responces. Ann. Biochem. (1972), Vol. 48, pp. 422-427].

[3] = test system: hepatic P-450 cytochrome system; experiment: Hexenal sleep duration in mice; assay type: in vivo; details: CBF1 mice, oral 3 days, control 25.91 ± 1.57
Procedure: Change in Hexenal sleep (HS) duration is the in vivo measurable index of hepatic P-450 cytochrome system condition.
Studies were carried out on male mice of the lines BALB/c*h75, C57B1/6, CBA, DBA/2, first generation CBF1 and BDF1 hybrides, with initial mass 18-20 g, each group including 10 mice; and on mongrel male guinea pigs with initial mass 250-300 g, each group including 24 animals. All the test compounds (from II to LII) were administered orally in drinking water and for three days at doses 50 and 500 µg/kg. Hexenal hydrochloride at a dose […] of animal mass was administered 24 hours after the last drug administration, except for line BALB/c*h75 mice, which were administered Hexenal at a dose 60 µg/kg at the same terms, and guinea pigs for which Hexenal dose was 30 µg/kg. HS duration was determined in minutes.

[4] = 50 µg/kg per os, 72, 48 and 18 hours prior to bronchospasm induction

For `O=C([O-])c1cc(=O)c2c(OCC(O)COc3cccc4oc(C(=O)[O-])cc(=O)c34)cccc2o1.[Na+].[Na+]` [Inthal, reference compound], the “decrease in bronchospasm value” (Male guinea pigs; as compared with the control values) was about 50% and the “Bronchospasm (percent of the maximum value)” value (Male guinea pigs; 5 mg/kg, 72, 48 and 18 hours prior to bronchospasm induction) was 40.7 3.4* percent of the maximum value.

`COc1ccc2cc([C@H](C)C(=O)O)ccc2c1` [Naproxene, reference compound] was tested, and the “Inflammation inhibition (%)” value (white mongrel male rats [1]) was 37%, the Volume increment (white mongrel male rats [1]) was 0.48 ± 0.02 and the “Volume of paws (conditional units) Right” value (white mongrel male rats [1]) was 1.82 ± 0.54 conditional units. For the same compound, the “Volume of paws (conditional units) left” value (white mongrel male rats [1]) was 1.34 ± 0.25 conditional units, the “Inflammation inhibition (%)” value (white mongrel male rats [2]) was 44% and the Volume increment (white mongrel male rats [2]) was 0.45 ± 0.02. The “Volume of paws (conditional units) Right” value (white mongrel male rats [2]) was 1.75 ± 0.54 conditional units and the “Volume of paws (conditional units) left” value (white mongrel male rats [2]) was 1.30 ± 0.25 conditional units.

In the case of `O=C(NCCO[N+](=O)[O-])c1cccnc1` [Nicorandil, reference compound], the “Ischemia zone, percent to the total myocardial mass” value (mongrel rats) was 25,0 ± 1,9%, the “Necrosis zone percent to myocardial zone” value (mongrel rats) was 44,3 ± 5,0% and the “Necrosis zone, percent to the total myocardial mass” value (mongrel rats) was 11,3 ± 1,6%.

With `CCC1(c2ccccc2)C(=O)NC(=O)NC1=O` [Phenobarbital, reference compound] the “5-HETE+HHT, percent of AA conversion” value ([C^14]-arachidonic acid) was 10.5 ± 0.26% of AA conversion, the “6-keto-PGF1α, percent of AA conversion” value ([C^14]-arachidonic acid) was 4.12 ± 0.12% of AA conversion and the “12-, 15-HETE, percent of AA conversion” value ([C^14]-arachidonic acid) was 27.1 ± 0.11% of AA conversion. For the same compound, the “PGE2, percent of AA conversion” value ([C^14]-arachidonic acid) was 3.82 ± 0.14% of AA conversion, the “PGF2α, percent of AA conversion” value ([C^14]-arachidonic acid) was 7.91 ± 0.08% of AA conversion and the “Phospholipids, percent of AA conversion” value ([C^14]-arachidonic acid) was 8.18 ± 0.21% of AA conversion. The “TXB2, percent of AA conversion” value ([C^14]-arachidonic acid) was 6.21 ± 0.18% of AA conversion, the “Unmetabolized AA, percent of AA conversion” value ([C^14]-arachidonic acid) was 14.5 ± 0.28% of AA conversion and the “B5 /P-450” value (P-450 and B5 cytochromes) was 0.81. For the same compound, the “B5 cytochrome nM/mg of protein” value (P-450 and B5 cytochromes) was 1.21 ± 0.10 nM/mg of protein, the “P-450B cytochromes nM/mg of protein” value (P-450 and B5 cytochromes) was 0.76 ± 0.08 nM/mg of protein and the P-450B/p-450L (P-450 and B5 cytochromes) was 1.02. For the same compound, the “P-450 cytochrome nM/mg of protein” value (P-450 and B5 cytochromes) was 1.50 ± 0.09 nM/mg of protein.

`NC(CCC(=O)NCCc1c[nH]c2ccc(O)cc12)C(=O)O` [compound XLIX, γ -L-glutamylserotonine] was tested, and the “Bronchospasm (percent of the maximum value)” value (Male guinea pigs; [4]) was 33.0 9.4* percent of the maximum value and the “Hexenal sleep duration (minutes)” value ([3]; 50 µg/kg) was 19.68 ± 2.04** minutes.

For `CCCCCC(=O)NCCc1c[nH]c2ccccc12` [compound XXXI, N-HEXANOYLTRYPTAMINE], the “Bronchospasm (percent of the maximum value)” value (Male guinea pigs; [4]) was 39.3 7.6* percent of the maximum value, the “Hexenal sleep duration (minutes)” value ([3]; 50 µg/kg) was 12.59 ± 0.88*** minutes and the “Hexenal sleep duration (minutes)” value ([3]; 500 µg/kg) was 12.61 ± 1.45*** minutes.
